Tests used:
Assay type in all cases: cell-based, human
[1] = test system: MCF-10A normal breast epithelial cell line; assay: MTT cytotoxicity assay on normal MCF-10A cells; conditions: Homo sapiens, MCF-10A, 48 h incubation
Description: (§1) All synthesized compounds (5a–5v) were tested using MTT assay at various concentrations (6.5 μM, 12.5 μM, 25 μM, and 50 μM) on the human breast cancer cell line MDA-MB-231. The cytotoxicity of the synthesized analogues was also assessed using human normal breast epithelial cell lines MCF-10A. Table 1 denotes IC50 values, percent inhibition, and cell viability for compounds 5a–v on MDA-MB-231. The dose–response analysis and calculations of IC50 values were performed using IBM SPSS statistics 26. The MTT assay on MDA-MB-231 confirmed the anticancer potential of all compounds. […] We then followed the same protocol as the cancer cells for the non-tumorigenic MCF-10A cells but with different concentrations (6.5 μM, 12.5 μM, 25 μM, and 50 μM). This was done to determine whether the toxic effects of the chemicals were selective for cancer cells compared to non-cancerous cells.
(§2) The in vitro cytotoxicity of the synthetic derivatives was evaluated using an MTT assay against a breast cancer cell line (MDA-MB-231).[33] The normal human breast cell line (MCF-10A) was maintained as a control in this study.[34,35] The cells were grown in DMEM with 10% FBS and 1% antibiotics (100 U mL^−1 penicillin). They were plated in a 96-well plate at a density of 1.0 × 10^4 cells per well and incubated for 24 hours at 37 °C in a 5% CO2 atmosphere. After discarding the medium, both cell lines were treated with various concentrations (6.5 μM, 12.5 μM, 25 μM, and 50 μM) of synthetic triazole derivatives.[36] After 48 h of incubation, [37] 20 μL of MTT solution (5 mg mL^−1) was added to each well and incubated for an additional 4 hours. After incubation, the medium was removed, and the formazan precipitate was dissolved in DMSO. The absorbance of the mixture was then measured at 570 nm using a microplate reader. All experiments were performed in triplicate, and the cytotoxicity was expressed as a percentage of cell viability compared to untreated control cells as per an earlier reported protocol by Sakhi et al.:[36]1 [drawing 1]

[2] = MTT cytotoxicity assay on normal MCF-10A cells; conditions: human, MCF-10A normal breast epithelial cells, 48 h incubation, test concentration for viability not stated (6.5-50 μM tested), read-out: Viability (%) Normal cell line (MCF-10A)
Description: as §1, §2

[3] = test system: MDA-MB-231 breast cancer cell line; assay: MTT cytotoxicity assay on MDA-MB-231; conditions: 48 h incubation; for Viability (%) Breast cancer cell line (MDA-MB-231): test concentration for viability not stated (6.5-50 μM tested); for IC50: triplicate
Description: as §1, §2

| Compound | IC50 [1] [µM] | viability at 48 h [2] [%] | Viability (%) Breast cancer cell line (MDA-MB-231) [3] [%] | IC50 ([3]; Homo sapiens, MDA-MB-231, 48 h) [µM] | IC50 [3] [µM] |
| --- | --- | --- | --- | --- | --- |
| O=C(Cc1cc(F)ccc1F)NN=Cc1cn(Cc2ccccc2)c2ccccc12 [Compound 5s, (E)-N′-[(1-benzyl-1H-indo1-3-yl)methylene]-2-(2,5-difluorophenyl)acetohydrazide] | > 50 | 86.3 | 38.14 | 29.4 ± 0.8 |  |
| O=C(Cc1ccc(C(F)(F)F)cc1)NN=Cc1cn(Cc2ccccc2)c2ccccc12 [Compound 5d, (E)-N′-[(1-benzyl-1H-indo1-3-yl)methylene]-2-(4(trifluoromethyl)phenyl)acetohydrazide] | > 50 | 80.2 | 27.94 | 22.6 ± 0.8 |  |
| Cc1ccccc1C(=O)NN=Cc1cn(Cc2ccccc2)c2ccccc12 [Compound 5v, (E)-N′-[(1-benzyl-1H-indo1-3-yl)methylene]-2-methylbenzohydrazide] | > 50 | 81 | 28.11 | 29.4 ± 0.8 | 23.1 ± 0.6 |
| O=C(NN=Cc1cn(Cc2ccccc2)c2ccccc12)c1ccco1 [Compound 5i, (E)-N′-[(1-benzyl-1H-indo1-3-yl)methylene]furan-2-carbohydrazide] | > 50 | 84.6 | 23.53 | 17.2 ± 0.4 | 19.2 ± 0.4 |
| O=C(NN=Cc1cn(Cc2ccccc2)c2ccccc12)c1ccccc1 [Compound 5b, (E)-N′-[(1-benzyl-1H-indo1-3-yl)methylene]benzohydrazide] | > 50 | 77.1 | 18.56 | 17.2 ± 0.4 |  |
| O=C(Cc1cc(F)cc(F)c1)NN=Cc1cn(Cc2ccccc2)c2ccccc12 [Compound 5r, (E)-N′-[(1-benzyl-1H-indo1-3-yl)methylene]-2-(3,5-difluorophenyl)acetohydrazide] | > 50 | 84.1 | 36.18 | 31.6 ± 0.1 |  |
| O=C(NN=Cc1cn(Cc2ccccc2)c2ccccc12)c1ccncc1 [Compound 5k, (E)-N′-[(1-benzyl-1H-indo1-3-yl)methylene]isonicotinohydrazide] | > 50 | 80.1 | 23.44 | 21.4 ± 0.2 |  |
| O=C(NN=Cc1cn(Cc2ccccc2)c2ccccc12)c1ccc(Br)cc1 [Compound 5f, (E)-N′-[(1-benzyl-1H-indo1-3-yl)methylene]-4-bromobenzohydrazide] | > 50 | 82.4 | 25.05 | 21.8 ± 0.2 |  |
| O=C(NN=Cc1cn(Cc2ccccc2)c2ccccc12)c1ccccc1Br [Compound 5m, (E)-N′-[(1-benzyl-1H-indo1-3-yl)methylene]-2-bromobenzohydrazide] | > 50 | 87.2 | 29.14 | 26.4 ± 0.2 |  |
| Cc1ccc(C(=O)NN=Cc2cn(Cc3ccccc3)c3ccccc23)cc1F [Compound 5c, (E)-N′-((l-benzyl-1H-indo1-3-yl)methylenel-3-fluoro-4-methylbenzohydrazide] | > 50 | 85.7 | 37.40 | 27.1 ± 0.4 |  |
| O=C(NN=Cc1cn(Cc2ccccc2)c2ccccc12)c1cc2ccccc2cc1O [Compound 5g, (E)-N′-[(1-benzyl-1H-indo1-3-yl)methylene]-3-hydroxy-2-naphthohydrazide] | > 50 | 81.8 | 29.76 | 24.4 ± 0.6 |  |
| O=C(NN=Cc1cn(Cc2ccccc2)c2ccccc12)c1ccccc1Cl [Compound 5o, (E)-N′-((l-benzyl-1H-indo1-3-yl)methylenel-2-chlorobenzohydrazide] | > 50 | 82.3 | 20.37 | 19.6 ± 0.5 |  |
| O=C(NN=Cc1cn(Cc2ccccc2)c2ccccc12)c1cccc(Cl)c1 [Compound 5j, (E)-N′-[(1-benzyl-1H-indo1-3-yl)methylene]-3-chlorobenzohydrazide] | > 50 | 80.8 | 21.87 | 22.6 ± 0.1 |  |
| O=C(Cc1ccccc1)NN=Cc1cn(Cc2ccccc2)c2ccccc12 [Compound 5n, (E)-N′-(l-benzyl-1H-indo1-3-yl)methylenel-2-phenylacetohydrazide] | > 50 | 79.8 | 44.16 | 43.4 ± 0.2 |  |
| O=C(NN=Cc1cn(Cc2ccccc2)c2ccccc12)c1cccc2ccccc12 [Compound 5u, (E)-N′-[(1-benzyl-1H-indo1-3-yl)methylene]-1-naphthohydrazide] | > 50 | 83.6 | 30.59 | 26.6 ± 0.1 |  |
| O=C(Cc1ccc(F)cc1F)NN=Cc1cn(Cc2ccccc2)c2ccccc12 [Compound 5q, (E)-N′-[(1-benzyl-1H-indo1-3-yl)methylene]-2-(2,4-difluorophenypacetohydrazide] | > 50 | 79.5 | 41.09 | 37.6 ± 0.2 |  |
| COc1ccc(C(=O)NN=Cc2cn(Cc3ccccc3)c3ccccc23)cc1 [Compound 5a, (E)-N′-[(1-benzyl-1H-indol-3-ylmethylene]-4-methoxybenzohydrazide] | > 50 | 82.7 | 32.45 | 25.6 ± 0.4 |  |
| O=C(Cc1ccccc1C(F)(F)F)NN=Cc1cn(Cc2ccccc2)c2ccccc12 [Compound 5p, (E)-N′-[(1-benzyl-1H-indo1-3-yl)methylene]-2-(2-(trifluoromethyl)phenypacetohydrazide] | > 50 | 83.1 | 25.67 | 24.6 ± 0.1 |  |
| O=C(NN=Cc1cn(Cc2ccccc2)c2ccccc12)c1ccc(C(F)(F)F)cc1 [Compound 5h, (E)-N′-[(1-benzyl-1H-indo1-3-yl)methylene]-4-(trifluoromethyl)benzohydrazide] | > 50 | 78.1 | 33.07 | 30.8 ± 0.4 |  |
| O=C(NN=Cc1cn(Cc2ccccc2)c2ccccc12)c1cccnc1 [Compound 5e, (E)-N′-[(1-benzyl-1H-indo1-3-yl)methylene]nicotinohydrazide] | > 50 | 85.7 | 31.47 | 28.2 ± 0.5 |  |
